Reference: patent US20200146989A1, “A CO-AMORPHOUS FORM OF A SUBSTANCE AND A DIPEPTIDE” (University of Copenhagen, priority 2016, published 2020)
Values joined by “and” are separate entries in the source; they are usually repeats but may differ in a detail not shown here. Identical values can stand only once. Each block holds one compound with its values, some of them ahead of it.

How the values were obtained:
Type in all cases: physicochemical
[1] = Ease of amorphization by ball milling, checked by XRPD; parameters: key to Success in amorphization (yes/no): yes=y; no=n
Experimental: Amorphous and co-amorphous systems of the pure drugs and the binary and ternary mixtures with the amino acids or ASPA were prepared by vibrational ball milling.
The samples were prepared by placing a total amount of 500 mg of either the pure crystalline drug, mixtures of drug with one or two amino acids (molar ratio of either 1:1 or 1:1:1) or drug-dipeptides (1:1 molar ratio) in 25 ml milling jars containing two 12 mm stainless steel balls. The samples were milled at 30 Hz up to 180 min in an oscillatory ball mill (Mixer Mill MM400, Retch GmbH & Co, Haan, Germany) placed in a cooling room at 6° C.
(§1) The X-ray powder diffraction (XRPD) analysis was performed using a X'Pert Pro X-ray Diffractometer (PANalytical, Almelo, The Netherlands) using a Cu Kα radiation source (λ=1.54187 Å). An acceleration voltage and current of 45 kV and 40 mA were used. Samples were scanned in reflection mode between 5° and 35° 2θ with a scan speed of 0.0673° 2θ/s and a step size of 0.0262°. Data were collected and analyzed using the software X'Pert Data Collector (PANalytical, Almelo, The Netherlands). Samples were filled onto aluminum sample holders and gently compressed with a spatula, in order to contain a compacted and smooth surface.

[2] = Intrinsic dissolution rate (IDR) of compressed disks; conditions: 0.01M phosphate buffer pH 7.2, 37° C., 100 rpm, triplicate
Experimental: For the intrinsic dissolution rate (IDR) studies, 150 mg of powder was compressed directly into stainless steel cylinders, which served as IDR sample holders, with a hydraulic press (Hydraulische Presse Model IXB-102-9, PerkinElmer, Ueberlingen, Germany). Disks of pure crystalline drug, pure amorphous drug, and the co-amorphous blends of respectively drug-AA, drug-AA-AA and drug-dipeptide, shown in table 1.1, were compressed at different compaction pressures between 124.9 MPa and 249.7 MPa for 60 seconds in order to obtain a stable compact with smooth surface.
For the dissolution experiment an Erweka DT70 dissolution tester (Erweka GmbH, Heusenstamm, Germany) was used. […] The samples were analyzed with the respective HPLC method for the different drugs as described below. […]
The IDR was calculated as the drug release per accessibility area (μg cm^−2). For this purpose the drug concentration at the different time points was analyzed with HPLC (μg mL-^1), multiplied with 900 ml and divided with the accessible surface area of the drug.
For the pure drugs the accessible area, was set to be the surface area of the compact (0.7854 cm^2). […] The corrected accessible surface area was calculated based on the accessibility area within the mixture. […] From the calculated drug volume and the total volume of the tablet the relative drug volume percentage could be determined. […]

[3] = Physical stability of amorphous and co-amorphous samples on dry storage, recrystallization detected by XRPD; conditions: for Stability at 40° C. / Stability at room temperature: dry conditions, amorphous halo in XRPD
Experimental: as §1, with “a X'Pert Pro X-ray” left out, “Å).” for “Å).”, “surface. The pure amorphous drugs and co-amorphous mixtures were stored under dry conditions in desiccators at room temperature and 40° C.” for “surface.”

[4] = Powder dissolution, miniaturized USP 2 set-up; conditions: 0.1 M phosphate buffer pH 6.8, 37° C.; for MEB concentration released after 20 min of dissolution: 100 rpm, 5 mg MEB in 100 ml
Experimental: Powder dissolution studies were performed in an ERWEKA DT70 dissolution tester (Heusenstamm, Germany) equipped with a custom-made miniaturized dissolution set-up described earlier [DOI: 10.1208/s12249-008-9161-6]. This set-up is a down-scaled version (the vessel size is 250 mL) of USP apparatus 2, and the hydrodynamics is essentially similar to the standard USP 2 apparatus. Pure drugs, drug-ASPA mixtures or drug-dipeptide mixtures containing an equivalent amount of 5 mg of MEB or 5 mg of TAD in total were placed in 100 ml of 0.1 M phosphate buffer (pH 6.8, 37° C.) and stirred at a rotation speed of 100 rpm. At predetermined time points (2, 5, 10, 20, 30, 60, 120, 180, 240, 300 and 360 min), 1 ml sample was withdrawn and immediately replaced with pre-warmed dissolution buffer. The obtained samples were quantified after filtration (0.45 μm) with the respective HPLC method for the different drugs as described below. All dissolution experiments were conducted in triplicate.
All samples from the dissolution studies were analyzed on a Dionex (Germering, Germany) HPLC system equipped with a P680 pump, an ASI-100 automated sample injector and a PDA 100 photodiode array detector was used. A reverse-phase Kinetex C18 ([…]×4.6 mm, 5 μm) column with UV detection at 240 nm for CRV, 264 nm for IND, 312 nm for MEB and 285 nm for TAD was used, with a constant flow rate of 1.0 ml min^−1 and an isocratic solvent system. The mobile phases (MP) consisted of 50% (V/V) phosphoric acid (pH=2) and 50% MeOH for the analysis of CRV, 25% (V/V) phosphoric acid (pH=2) and 75% MeOH for the analysis of IND, 47% (V/V) of 0.05 M KH2PO4, 20% (V/V) of acetonitrile and 33% (V/V) methanol for the analysis of MEB, 60% (V/V) 0.0724 M pH 6.8 phosphate buffer and 40% (V/V) of acetonitrile for the analysis of TAD, respectively. Chromatograms were analyzed by using Chromeleon Version 7.1.3.2425 software. […]

Success in amorphization (yes/no) ([1]; IND and CRV samples, ball milled 90 or 180 min, XRPD): y
SMILES: COc1ccccc1OCCNCC(O)COc1cccc2[nH]c3ccccc3c12 (centres unmarked) [CRV, Carvedilol]
intrinsic dissolution rate (IDR) ([2]; listed as amorphous CRV): 0.0086±0.001 mg cm^−2 min^−1 and 0.009±0.001 mg cm^−2 min^−1

Stability at 40° C. ([3]; IND and CRV): <7 days
Stability at room temperature ([3]; IND and CRV): <7 days
recrystallization peaks in the XRPD diffractograms within ([3]; storage at room temperature and 40° C. dry conditions, temperature not split in the sentence): ≤ 7 days
intrinsic dissolution rate (IDR) [2]: 0.128±0.004 mg cm^−2 min^−1
SMILES: COc1ccc2c(c1)c(CC(=O)O)c(C)n2C(=O)c1ccc(Cl)cc1 [IND, Indomethacin]

Milling time fully amorphization ([1]; MEB samples, XRPD at 30, 60, 90 and 180 min of ball milling): 60 min
Success in amorphization (yes/no) ([1]; MEB samples, ball milled, XRPD at 30, 60, 90 and 180 min): y
Stability at room temperature ([3]; MEB and TAD): >2 months
MEB concentration released after 20 min of dissolution ([4]; listed as amorphous MEB): 0.99 µg/mL
concentration after 240 min of dissolution as fold of crystalline MEB ([4]; 240 min): approx. 4.3 fold
SMILES: COC(=O)Nc1nc2ccc(C(=O)c3ccccc3)cc2[nH]1 [MEB, Mebendazole]

Stability at 40° C. ([3]; MEB and TAD): >2 months
Stability at room temperature ([3]; MEB and TAD): >2 months
SMILES: CN1CC(=O)N2[C@H](c3ccc4c(c3)OCO4)c3[nH]c4ccccc4c3C[C@@H]2C1=O [TAD, Tadalafil]

MEB concentration released after 20 min of dissolution [4]: 0.23 µg/mL
SMILES: COC(=O)Nc1nc2ccc(C(=O)c3ccccc3)cc2[nH]1 [crystalline MEB, Mebendazole]
